Results published in patent publication US6964783B1, “Non-solid composition for local application” (Naturveda, priority 1999, dated 2005).

System: 0.4×0.4 cm wound
Experiment: Wound healing in shaved rats after local application
Format: in vivo
Conditions: 0.2 ml applied on wound
Method: 30 rats (IFFA-CREDO SPF weighing 200+/−20 g) were shaved (3×3 cm) on the right side of the back. A 0.4×0.4 cm wound was produced at the centre of the shaved area. 30 minutes after producing the small wound, the coagulated blood was removed and 0.2 ml of glycerine containing 3% Alchemilla vulgaris (preparation according to example 4) or 0.2 ml of pure glycerine (controls) were applied on ten animals. The ten other control rats received 0.2 ml of distilled water. The complete healing time and the healing index were determined each day for 10 days. The healing time was reduced by 48% with the treatment based on glycerine containing 3% Alchemilla vulgaris, with a healing index of 2.1 in the treated lot, compared to an index of 3.3 obtained with the control lot.
With glycerine alone, the healing time was reduced by 26% with a healing index of 2.7.

OCC(O)CO [glycerine alone, glycerine] was tested, and the healing index (determined each day for 10 days, control lot 3.3) was 2.7 and the “healing time reduced by” value (followed each day for 10 days, versus control lot) was 26%.
